Source: US8334107B2, “Detection systems utilizing supported lipid bilayers” (priority 2005, dated 2012)

Legend:
[1] = Lipid bilayers on MS-PPE as barriers to superquenching by AQS, flow cytometry; type: physicochemical; settings: 10 μM AQS
Protocol: Small unilamellar vesicles (SUVs) were prepared using a 2 mM solution of DPPC, 1 mM egg-PC, or 2 mM DMPG in chloroform. The lipid was dried by nitrogen gas followed by vacuum. The dried lipid was resuspended in phosphate buffer saline (PBS), pH 7.4, and incubated at 37° C. for 10 min, then sonicated to optical clarity in a sonication bath (Branson Cleaning Equipment Co., Shelton, Conn.).
Lipid bilayers were assembled on microspheres as previously described (Buranda et al. Langmuir 19:1654-1663 (2003); Bayerl & Bloom, Biophys J 58:357-362 (1990)). Briefly, the small unilamellar vesicles were incubated at 37° C. for 5 min, and PPE-coated microspheres were added to them, and mixed at room temperature using a vortex mixer for 30 min, followed by incubation at 37° C. for 5 min without mixing. The lipid-coated PPE-coated microspheres were washed by suspension in PBS followed by centrifugation, where the clear supernatant was decanted and discarded. The cycle of resuspension, centrifugation, and decanting, was repeated four additional times. Finally, the lipid-coated PPE-coated microspheres were resuspended in PBS.
(§1) Bead suspensions of 2.5×10^5 PPE-coated microspheres in 200 μL PBS were analyzed using a FACScan flow cytometer (Becton-Dickinson, Sunnyvale, Calif.) with excitation at 488 nm. Fluorescence signals were acquired on the FL-1 channel (525 nm) using log amplification and analyzed with the CellQuest software.
The feasibility of using the zwitterionic lipids DPPC and egg-PC to form supported lipid bilayers on MS-PPE was assessed (FIG. 15). […] Addition of AQS produced an almost 40% reduction of the polymer fluorescence, yet the fluorescence of the DPPC bilayer coated MS-PPE in the presence of the AQS quencher was still almost 10-fold higher than that of MS-PPE and quencher without the lipid.
The PPE polymer is positively charged. […] However when using 2 mM DMPG, the modulation of polymer fluorescence was relatively small (FIG. 15). […] Thus, upon addition of quencher to MS-PPE after treatment with DMPG ˜70% of fluorescence of the PPE was retained (FIGS. 16A and 16B).

[2] = tested on: EPC bilayer on porous silica beads; assay: Suspension study: release of fluorescein dye from lipid bilayer coated porous silica beads; type: biochemical
Protocol: Lipid coatings on beads were disrupted using 10% Triton X-100. Each sample in micro-centrifuge tubes contained 5 mg of lipid bilayer coated, fluorescein entrapped beads in 200 μL of Tris buffer. Samples were centrifuged and 100 μL aliquots of supernatant were mixed with either 100 μL of Tris buffer or 100 μL of 10% Triton X-100® detergent in separate centrifuge tubes. The fluorescence intensity of each mixture was immediately (time=0) recorded. Each mixture was mixed with its respective bead sample in centrifuge tube and incubated at 25° C. in the dark. After 30 min, samples were centrifuged and fluorescent intensity of the supernatants was measured. Beads were resuspended in their respective supernatants. Fluorescence intensity was again measured at 90 and 150 min.
Experimental procedures were similar to the Triton X-100® detergent based analysis. For experiments with α-toxin, three different toxin concentrations: 15, 45 and 250 μg/mL were used at 37° C. and 25° C. Beads coated with EPC were used. In the experiments with melittin, 220 μM melittin was used with beads coated with either 100% EPC, 10:90 (molar ratio) mixture of DMPG and EPC or an 80:20 mixture of DMPG and DMPC. All melittin experiments were conducted at 25° C.
Previous suspension studies on disruption of lipid bilayers have been performed with small unilamellar vesicles where disruption of the lipid bilayer membranes was detected by monitoring the unquenching of a highly concentrated, encapsulated dye. In the present work disruption was monitored via release of fluorescein dye from porous beads, by measuring the increase in fluorescence intensity of the supernatant at 520 nm. Beads were first suspended in Tris buffer containing the disruptor. After selected time periods, beads were sedimented by centrifuging and a portion of the supernatant was taken for the measurement. The measured portion was added back to the bead sample to permit continuous monitoring. The scattering effect that was present in vesicle based studies was minimized by measuring only the supernatant after centrifugation of the beads.

[3] = tested on: lipid membranes on porous silica beads (containing fluorescein dye); assay: Microfluidic study: detection of membrane interaction by release of dye from bead packed microcolumn; type: biochemical
Protocol: To create a packed microcolumn of lipid coated beads containing fluorescein, 2 μL of silica bead (diameter=20 μm) containing suspension (0.05 mg/μL) was injected into a microfluidic channel by applying vacuum at the outlet port of the microchannel, followed by the injection of 10 μL of fluorescein-entrapped bead (diameter=10 μm) containing suspension (0.05 mg/μL). The bead packed microchannel was mounted onto a vertical translational stage located in the sample holder space of the fluorimeter. Just below the bead segment, the microchannel was irradiated with an Argon ion laser (λ=488 nm, 8-10 mW) excitation. The inlet of the column was connected to a buffer reservoir while the outlet was connected to a vacuum source. As the fluorescence intensity at 520 nm was monitored, several microliters of Tris buffer was passed through the microchannel before the injection of Triton X-100® detergent. […]
The packed segment was about 2 mm long. The disruption of the membranes on porous silica beads (containing fluorescein dye) by Triton X-100® detergent was detected by monitoring the release of the dye from the beads, at a point just below the bead segment as indicated in FIG. 7B. […] The microcolumn was irradiated at 488 nm and fluorescence intensity was monitored at 520 nm. […]

[4] = tested on: DMPG lipid bilayer on MS-PPE; assay: Disruption of DMPG lipid bilayer on MS-PPE detected by superquenching with AQS, flow cytometry; type: biochemical
Protocol: Lipid bilayers were disrupted by adding Triton X-100® detergent to the bead suspension to a final concentration of 0.25% (w/v).
as §1
Bead suspensions of 2.5×10^5 DMPG-coated MS-PPE in 200 μL of PBS were analyzed using a FACScan flow cytometer (Becton-Dickinson, Sunnyvale, Calif.) with excitation at 488 nm. Fluorescence signals were acquired on FL-1 channel (525 nm) using log amplification and analyzed with the CellQuest software. Kinetic analysis of disruption of supported lipid bilayer by melittin was performed by acquiring real-time data with continuous mixing of samples (10^6 MS-PPE in 800 μl of PBS) using a magnetic stirrer. The raw data were analyzed using IDL Query software developed by Bruce Edwards (Cancer Center, University of New Mexico, Albuquerque, N. Mex.).
Because an anionic lipid was used to form a lipid bilayer around MS-PPE, it was expected that MLT will disrupt the DMPG lipid bilayer by such a detergent-like action. This was tested by adding 10 μM AQS to DMPG-coated MS-PPE followed by treatment with one of the following: Triton X-100® detergent, synthetic MLT (sMLT), or natural MLT (nMLT) and immediately reading the fluorescence by flow cytometry. […] These histograms resemble the ones reported previously for MS-PPE, without a lipid coating, in absence and in presence of AQS.
The kinetics of disruption of supported lipid bilayer by MLT were monitored by measuring real-time changes in fluorescence intensity by flow cytometry (FIG. 19). Suspensions of 10^6 DMPG-coated MS-PPE in 800 μL of PBS were treated with AQS at a final concentration of 10 μM, then with either sMLT, Triton X-100® detergent, or no treatment. […] Treatment with sMLT in the absence of AQS led to an increase in normalized fluorescence (FIG. 19, trace A). This can be attributed to disruption of the lipid bilayer by sMLT, and is consistent with a reversal of the slight quenching of fluorescence caused by the formation of a DMPG lipid bilayer over MS-PPE. Addition of AQS alone to DMPG-coated MS-PPE (FIG. 19, trace C) led to a 20% reduction in fluorescence as reported earlier. Addition of Triton X-100® detergent to DMPG-coated MS-PPE after the addition of AQS (first dip in trace E, FIG. 19) caused immediate decrease in fluorescence to ˜10% of its original value (second dip in trace E, FIG. 19). In contrast, addition of sMLT, after the addition of AQS, (FIG. 19, trace D) led to a gradual reduction of fluorescence intensity to ˜20% of the original value. Although MLT forms dimers at high concentrations (Dempsey, C. E. Biochim. Biophys. Acta 1990, 1031, 143-161), it is monomeric at the concentrations used in this study. On the other hand, Triton X-100® detergent forms micelles at the concentration used in this study.

[5] = 0.25% (w/v) Triton X-100, 10 μM AQS

CCCCCCCCCCCCCC(=O)OC[C@H](COP(=O)([O-])OCC(O)CO)OC(=O)CCCCCCCCCCCCC.[Na+] (mixture of isomers) [DMPG, 1,2-dimyristoyl-sn-glycero-3-[phosphor-rac-(1-glycerol)] sodium salt]
fluorescence of the PPE retained upon addition of quencher ([1]; 2 mM DMPG): ~70%

Triton X-100
increase in fluorescence intensity of the supernatant ([2]; 10% Triton X-100, first 30 min, 25° C.): more than 70 fold | increase in fluorescence intensity (total disruption of bilayers) ([2]; Triton X-100 added after 150 min of α-toxin exposure): 50 fold | initial signal (1st peak) less than that observed in suspension studies ([3]; 10% Triton X-100, microcolumn versus suspension): ~80% | increase in fluorescence intensity at detection point ([3]; 10 μL of 10% Triton X-100, about 5 min no flow incubation): 25 fold | fluorescence after bilayer disruption, of the fluorescence of DMPG-coated MS-PPE in the absence of quencher [4, 5]: ~18% | fluorescence after bilayer disruption, of the original fluorescence value [4, 5]: ~10% | fluorescence intensity, of the original value ([4]; real-time kinetics, added after 10 μM AQS (traces D, E)): ~10%

CCCCCCCCCCCCCCCC(=O)OC[C@H](COP(=O)([O-])OCC[N+](C)(C)C)OC(=O)CCCCCCCCCCCCCCC [DPPC, 1,2-dipalmitoyl-sn-glycero-3-phosphatidylcholine]
fluorescence with AQS relative to MS-PPE and quencher without the lipid [1]: ~10 fold | reduction (quenching) of polymer fluorescence on addition of AQS ([1]; lipid coated MS-PPE): ~40%
